Laboratory results taken from patent US12065421B2, “Inhibitors of oplophorus luciferase-derived bioluminescent complexes” (priority 2018, dated 2024).

Columns and labels:
NanoLuc = NanoLuc (Oplophorus gracilirostris, UniProt Q9GV45, A31E/A60N/A81I/F95D/I117V/K70R/L54V/L99Q/M102K/N193R/P142E/Q151K/Q38R/Q45L/V71I/Y165I); experiment: NANOLUC® (Nluc) inhibitory activity (FIG. 2); assay type: biochemical; conditions: Nluc 2 ng/ml in NanoGlo® buffer, 100 μM furimazine
Method: FIG. 2 compares the NANOLUC® (Nluc) inhibitory activity of exemplary compounds of the present invention to PBI-6096, a known Nluc inhibitor. Inhibitors were diluted into CO2-independent media with 10% FBS. Nluc was diluted to 2 ng/ml into NanoGlo® buffer with 100 μM furimazine. Serial dilutions of the inhibitors were added to the NanoLuc/furimazine/NanoGlo® solution, and samples were immediately analyzed using a GloMax®-Multi+ Plate Reader.

[1] = test system: NanoBiT® HiBit/LgBit bioluminescent complex; experiment: Inhibition of bioluminescent complex in lysed HEK293 cells expressing HiBiT fusion plus purified LgBiT (FIG. 3A); assay type: cell-based, Oplophorus gracilirostris; conditions: HEK293 cells lysed with digitonin, purified LgBiT added, 2 hours, 10 μM furimazine
Method: FIGS. 3A-3B show the inhibition of bioluminescent complexes in cells. In FIG. 3A, HEK293 cells were transfected with DNA encoding an intracellular NanoBiT® HiBiT fusion protein, plated at 20,000 cells/100 μL growth medium, and incubated for 24 hours. Following 24 hours of expression, cells were lysed with 50 ug/mL (final) of digitonin in OptiMEM and treated with purified NanoBiT® LgBiT non-luminescent polypeptide and serial dilutions of HL-0005. After 2 hours of incubation at room temperature, furimazine was added (10 μM final concentration), and luminescence was measured on a GloMax®-Multi+ Plate Reader.

[2] = test system: NanoBiT® HiBit/LgBit bioluminescent complex; assay type: cell-based, Oplophorus gracilirostris; conditions: HEK293 cells, optionally lysed with 50 ug/mL digitonin
Method: In FIG. 3B, HEK293 cells were transfected with DNA encoding an intracellular NanoBiT® HiBiT fusion protein and DNA encoding an intracellular NanoBiT® LgBiT fusion protein such that the fusion proteins were co-expressed within the cell. Transfected cells were plated at 20,000 cells/100 μL growth medium and incubated for 24 hours. Following 24 hours of expression, cells were optionally lysed with 50 ug/mL of digitonin in OptiMEM and treated with serial dilutions of HL-0005. After 2 hours of incubation at room temperature, furimazine was added (10 μM final concentration), and luminescence was measured on a GloMax® Multi+ Plate Reader.

Chain of NanoLuc (Q9GV45 28-196 with tags or gaps with the stated changes limits assumed): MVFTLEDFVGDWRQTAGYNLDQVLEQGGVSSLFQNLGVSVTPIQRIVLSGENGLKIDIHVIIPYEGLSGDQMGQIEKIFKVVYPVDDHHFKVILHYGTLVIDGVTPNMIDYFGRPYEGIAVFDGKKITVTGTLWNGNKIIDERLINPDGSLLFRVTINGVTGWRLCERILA

Row | SMILES | inhibition against NanoLuc (NanoLuc) | inhibition of HiBit/LgBit bioluminescent complex in a cellular context [1] | cell permeability (IC50 values in lytic and non-lytic conditions compared) [2]
1 | Cc1ccc(S(=O)(=O)Nc2ccccc2C(=O)Nc2cc3ccccc3s2)cc1 [HL-0005, N-(benzo[b]thiophen-2-yl)-2-((4-methylphenyl)sulfonamido)benzamide] | do not show any appreciable inhibition | inhibition | mostly cell permeable
2 | N#Cc1c(NC(=O)c2ccccc2NS(=O)(=O)c2ccccc2)sc2c1CCC2 [HL-0010, N-(3-cyano-5,6-dihydro-4H-cyclopenta[b]thiophen-2-yl)-2-(phenylsulfonamido)benzamide] | do not show any appreciable inhibition | – | –
3 | Cc1ccc(S(=O)(=O)Nc2ccccc2C(=O)Nc2sc3c(c2C#N)CCCC3)cc1 [JRW-1004, N-(3-cyano-4,5,6,7-tetrahydrobenzo[b]thiophen-2-yl)-2-((4-methylphenyl)sulfonamido)benzamide] | do not show any appreciable inhibition | – | –
